Experimental data taken from ChEMBL document CHEMBL1124085, “Flavins as potential antimalarials. 1. 10-(Halophenyl)-3-methylflavins” (1988).

Columns and labels:
Mus musculus [1] = experiment: Oral antimalarial activity against Plasmodium vinckei in mice (Mus musculus) measured as % cured and increase in MST (days) at 50 mg/kg dose.; type: functional
Mus musculus [2] = experiment: Oral antimalarial activity against Plasmodium vinckei in mice (Mus musculus) measured as increase in mean survival time at 25 mg/kg dose.; type: functional
Mus musculus [3] = experiment: Parenteral antimalarial activity against Plasmodium vinckei in mice (Mus musculus) measured as % cured and increase in MST (days) at 15 mg/kg dose.; type: functional
Mus musculus [4] = experiment: Parenteral antimalarial activity against Plasmodium vinckei in mice (Mus musculus) measured as % cured and increase in MST (days) at 30 mg/kg dose.
Mus musculus [5] = experiment: Oral antimalarial activity against Plasmodium vinckei vinckei in mice (Mus musculus) measured as % cured and increase in MST (days) at 100 mg/kg dose.; type: functional
Mus musculus [6] = experiment: Oral antimalarial activity against Plasmodium vinckei in mice (Mus musculus) measured as % cured and increase in MST (days) at 75 mg/kg dose.; type: functional
Mus musculus [7] = experiment: Oral antimalarial activity against Plasmodium vinckei vinckei in mice (Mus musculus) measured as % cured and increase in MST (days) at 150 mg/kg dose.; type: functional
Mus musculus [8] = experiment: Parenteral antimalarial activity against Plasmodium vinckei vinckei in mice (Mus musculus) measured as % cured and increase in MST (days) at 25 mg/kg dose.; type: functional
Mus musculus [9] = experiment: Parenteral antimalarial activity against Plasmodium vinckei vinckei in mice (Mus musculus) measured as % cured and increase in MST (days) at 10 mg/kg dose.; type: functional
Mus musculus [10] = experiment: Parenteral antimalarial activity against Plasmodium vinckei vinckei in mice (Mus musculus) measured as % cured and increase in MST (days) at 20 mg/kg dose.; type: functional
Mus musculus [11] = experiment: Oral antimalarial activity against Plasmodium vinckei in mice (Mus musculus) measured as % cured and increase in MST (days) at 25 mg/kg dose.; type: functional
Mus musculus [12] = experiment: Parenteral antimalarial activity against Plasmodium vinckei in mice (Mus musculus) measured as % cured and increase in MST (days) at 30 mg/kg dose.; type: functional
Mus musculus [13] = experiment: Oral antimalarial activity against Plasmodium vinckei vinckei in mice (Mus musculus) measured as increase in mean survival time at 100 mg/kg dose.; type: functional
Mus musculus [14] = experiment: Oral antimalarial activity against Plasmodium vinckei vinckei in mice (Mus musculus) measured as increase in mean survival time at 75 mg/kg dose.; type: functional
Mus musculus [15] = experiment: Oral antimalarial activity against Plasmodium vinckei vinckei in mice (Mus musculus) measured as increase in mean survival time at 50 mg/kg dose.; type: functional
Mus musculus [16] = experiment: Parenteral antimalarial activity against Plasmodium vinckei in mice (Mus musculus) measured as % cured and increase in MST (days) at 25 mg/kg dose.; type: functional
Mus musculus [17] = experiment: Parenteral antimalarial activity against Plasmodium vinckei vinckei in mice (Mus musculus) measured as % cured and increase in MST (days) at 30 mg/kg dose.; type: functional
Mus musculus [18] = experiment: Oral antimalarial activity against Plasmodium vinckei vinckei in mice (Mus musculus) measured as % cured and increase in MST (days) at 50 mg/kg dose; type: functional
Mus musculus [19] = experiment: Oral antimalarial activity against Plasmodium vinckei vinckei in mice (Mus musculus) measured as % cured and increase in MST (days) at 150 mg/kg dose; type: functional
Mus musculus [20] = experiment: Parenteral antimalarial activity against Plasmodium vinckei in mice (Mus musculus) measured as increase in mean survival time at 20 mg/kg dose; Toxic; type: functional
Mus musculus [21] = experiment: Oral antimalarial activity against Plasmodium vinckei in mice (Mus musculus) measured as % cured and increase in MST (days) at 25 mg/kg dose; type: functional
Mus musculus [22] = experiment: Parenteral antimalarial activity against Plasmodium vinckei in mice (Mus musculus) measured as % cured and increase in MST (days) at 25 mg/kg dose; type: functional
Mus musculus [23] = experiment: Parenteral antimalarial activity against Plasmodium vinckei in mice (Mus musculus) measured as % cured and increase in MST (days) at 20 mg/kg dose; type: functional
Mus musculus [24] = experiment: Parenteral antimalarial activity against Plasmodium vinckei in mice (Mus musculus) measured as increase in mean survival time at 25 mg/kg dose; Toxic; type: functional
Mus musculus [25] = experiment: Parenteral antimalarial activity against Plasmodium vinckei in mice (Mus musculus) measured as % cured and increase in MST (days) at 10 mg/kg dose; type: functional
Mus musculus [26] = experiment: Oral antimalarial activity against Plasmodium vinckei vinckei in mice (Mus musculus) measured as increase in mean survival time at 75 mg/kg dose; type: functional
Mus musculus [27] = experiment: Oral antimalarial activity against Plasmodium vinckei vinckei in mice (Mus musculus) measured as increase in mean survival time at 50 mg/kg dose; type: functional
Mus musculus [28] = experiment: Parenteral antimalarial activity against Plasmodium vinckei vinckei in mice (Mus musculus) measured as % cured and increase in MST (days) at 15 mg/kg dose; type: functional
Mus musculus [29] = experiment: Parenteral antimalarial activity against Plasmodium vinckei in mice (Mus musculus) measured as increase in mean survival time at 10 mg/kg dose; type: functional
Mus musculus [30] = experiment: Oral antimalarial activity against Plasmodium vinckei in mice (Mus musculus) measured as % cured and increase in MST (days) at 75 mg/kg dose; type: functional
Mus musculus [31] = experiment: Oral antimalarial activity against Plasmodium vinckei in mice (Mus musculus) measured as increase in mean survival time at 25 mg/kg dose; type: functional
Mus musculus [32] = experiment: Oral antimalarial activity against Plasmodium vinckei in mice (Mus musculus) measured as increase in mean survival time at 150 mg/kg dose; type: functional
Mus musculus [33] = experiment: Oral antimalarial activity against Plasmodium vinckei in mice (Mus musculus) measured as increase in mean survival time at 100 mg/kg dose; type: functional
Mus musculus [34] = experiment: Parenteral antimalarial activity against Plasmodium vinckei in mice (Mus musculus) measured as increase in mean survival time at 15 mg/kg dose; type: functional
Mus musculus [35] = experiment: Oral antimalarial activity against Plasmodium vinckei vinckei in mice (Mus musculus) measured as % cured and increase in MST (days) at 100 mg/kg dose; type: functional
Mus musculus [36] = experiment: Parenteral antimalarial activity against Plasmodium vinckei vinckei in mice (Mus musculus) measured as increase in mean survival time at 25 mg/kg dose.; type: functional
Mus musculus [37] = experiment: Oral antimalarial activity against Plasmodium vinckei in mice (Mus musculus) measured as increase in mean survival time at 150 mg/kg dose.; type: functional
Mus musculus [38] = experiment: Parenteral antimalarial activity against Plasmodium vinckei in mice (Mus musculus) measured as increase in mean survival time at 10 mg/kg dose.; type: functional
Mus musculus [39] = experiment: Parenteral antimalarial activity against Plasmodium vinckei in mice (Mus musculus) measured as increase in mean survival time at 15 mg/kg dose.; type: functional
Mus musculus [40] = experiment: Parenteral antimalarial activity against Plasmodium vinckei vinckei in mice (Mus musculus) measured as increase in mean survival time at 30 mg/kg dose.; type: functional
Mus musculus [41] = experiment: Parenteral antimalarial activity against Plasmodium vinckei vinckei in mice (Mus musculus) measured as increase in mean survival time at 20 mg/kg dose.; type: functional

Structure (SMILES)	Cured (Mus musculus [1])	MST (Mus musculus [2])	Cured (Mus musculus [3])	Cured (Mus musculus [5])	Cured (Mus musculus [6])	Cured (Mus musculus [7])	Cured (Mus musculus [8])	Cured (Mus musculus [9])	Cured (Mus musculus [10])	Cured (Mus musculus [11])	MST (Mus musculus [3])	MST (Mus musculus [12])	MST (Mus musculus [13])	MST (Mus musculus [14])	MST (Mus musculus [15])	MST (Mus musculus [16])	Cured (Mus musculus [17])	MST (Mus musculus [9])	MST (Mus musculus [36])	MST (Mus musculus [37])	also measured
Cn1c(=O)nc2n(-c3cc(Cl)cc(Cl)c3)c3ccccc3nc-2c1=O	100%	3.5 days	100%	100%	100%	100%	100%	100%	100%	60%											Cured (Mus musculus [4]): 100%
Cn1c(=O)nc2n(-c3ccc(Cl)c(Cl)c3)c3ccccc3nc-2c1=O	0%	0 days	60%	0%	0%	40%	80%	0%	100%	0%	0.5 days	1 days	0.5 days	0.5 days	0 days	0 days	60%	0.5 days			
Cn1c(=O)nc2n(-c3ccccc3Cl)c3ccccc3nc-2c1=O																					Cured (Mus musculus [18]): 0%; Cured (Mus musculus [19]): 0%; MST (Mus musculus [20]): -0.2 days; Cured (Mus musculus [21]): 0%; Cured (Mus musculus [22]): 0%; Cured (Mus musculus [23]): 0%; MST (Mus musculus [24]): -1.4 days; Cured (Mus musculus [25]): 0%; MST (Mus musculus [26]): 0 days; MST (Mus musculus [27]): 0 days; Cured (Mus musculus [28]): 0%; MST (Mus musculus [29]): 0 days; Cured (Mus musculus [30]): 0%; MST (Mus musculus [31]): 0 days; MST (Mus musculus [32]): 0 days; MST (Mus musculus [33]): 0 days; MST (Mus musculus [34]): 0 days; Cured (Mus musculus [35]): 0%
Cn1c(=O)nc2n(-c3ccc(Cl)cc3Cl)c3ccccc3nc-2c1=O	0%	0 days	0%	80%	40%	60%	0%	0%	0%	0%			1.5 days	1 days	1.3 days		0%		-1.2 days	1.5 days	MST (Mus musculus [38]): 1.7 days; MST (Mus musculus [39]): 0.5 days; MST (Mus musculus [40]): -1 days; MST (Mus musculus [41]): 0 days
O=c1nc2n(-c3ccc(Cl)cc3)c3ccccc3nc-2c(=O)[nH]1	0%	0 days	0%	0%	0%	0%	0%	0%	0%	0%	0 days	0 days	0 days	0 days	0 days	0 days	0%	0 days		0 days	MST (Mus musculus [10]): 0 days
Cn1c(=O)nc2n(-c3cc(Cl)ccc3Cl)c3ccccc3nc-2c1=O	0%	0 days	0%	0%	0%	0%	0%	0%	0%	0%			0 days	0 days	0 days		0%		0 days	0 days	MST (Mus musculus [38]): 0 days; MST (Mus musculus [39]): 0 days; MST (Mus musculus [40]): 0 days; MST (Mus musculus [41]): 0 days
